In brackets after ≈: the same amount, converted by molar mass. Entries after “also recorded” stand apart in the source; their conditions may differ. Read-outs that look alike come from different tables or passages of the source.
Key:
GAS strain UMAA2616 = test: microbe, parasite or virus in culture; assay type: cell-based, Streptococcus pyogenes (Group A Streptococcus); settings: Streptococcus pyogenes, UMAA2616, read-out: 50 μM Growth T/C
[1] = Microsomal stability assay; settings: for MLM t1/2: half-life of parent compound during incubation with mouse liver microsomes, 1 μM, 0.5 mg/mL, NADPH; for half-life at 1 μM: mouse, microsomes
[2] = target: streptokinase (SK) expression in GAS strain UMAA2616; test: microbe, parasite or virus in culture; assay type: cell-based, Streptococcus pyogenes (Group A Streptococcus); settings: for IC50: read-out: IC50 (SK activity)
[3] = system: S. aureus biofilm formation; test: Biofilm formation, plate-based OD assay; assay type: cell-based, Staphylococcus aureus; settings: reported in greater detail in ref 28
Aqueous = settings: for Aq. Sol.: kinetic solubility in aqueous Todd Hewitt (THY) bacterial media, 37°C
HeLa cells = test: Mammalian cytotoxicity assay; assay type: cell-based; settings: up to 100 μM, the highest concentration tested; 24 hours
GAS infection = settings: transgenic mouse model of GAS infection; cited from earlier work
[4] = full dose-response titration, approximate IC50

Q: With `C=CCn1c(SCc2ccccn2)nc2c(c1=O)C(C)(C)Cc1ccccc1-2` [12e, 3-allyl-5,5-dimethyl-2-((pyridin-2-ylmethyl)thio)-5,6-dihydrobenzo[h]quinazolin-4(3H)-one] as the compound, how does the activity at 50 µM (GAS strain UMAA2616) read?
A: 105 ± 2%

Q: Which “MLM t1/2” value [1] does the source give for “2-(ethylthio)-9-methoxy-5,5-dimethyl-3-(2,2,2-trifluoroethyl)-5,6-dihydrobenzo[h]quinazolin-4(3H)-one [19b]” here?
A: 3.0 min

Q: Which activity at 50 µM (GAS strain UMAA2616) does the source give for `CCn1c(SCc2ccccc2)nc2c(c1=O)C1(CCCC1)Cc1ccccc1-2` [compound 28] here?
A: 107 ± 4%

Q: For “3-Allyl-2-(allylthio)-8-methoxy-5,5-dimethyl-5,6-dihydrobenzo[h]quinazolin-4(3H)-one [12k]”, which IC50 [2, 4] is on record?
A: 6.9 ± 0.3 µM

Q: And the “S. aureus biofilm inhibition” value [3]?
A: potent S. aureus biofilm inhibitors

Q: And the “MLM t1/2” value [1]?
A: 0.6 min

Q: And the “Aq. Sol.” value (Aqueous)?
A: 14.5 ± 3.5 µM

Q: For `C=CCn1c(S(=O)(=O)CC)nc2c(c1=O)C(C)(C)Cc1ccc(OC)cc1-2` [compound 15, 3-allyl-2-(ethylsulfonyl)-9-methoxy-5,5-dimethyl-5,6-dihydrobenzo[h]quinazolin-4(3H)-one], which activity at 50 µM (GAS strain UMAA2616) is on record?
A: 103 ± 3%

Q: And the half-life at 1 μM [1]?
A: 3.8 min

Q: What does the source list for `C=CCn1c(SCCOC)nc2c(c1=O)C(C)(C)Cc1ccccc1-2` [12h, 3-allyl-2-((2-methoxyethyl)thio)-5,5-dimethyl-5,6-dihydrobenzo[h]quinazolin-4(3H)-one]?
A: activity at 50 µM (GAS strain UMAA2616): 86 ± 10%; Inhibition of HeLa cell growth (HeLa cells): ≤ 35%

Q: For `C=CCn1c(SCCOC)nc2c(c1=O)C1(CCCCC1)Cc1ccccc1-2` [6d, 3-allyl-2-((2-methoxyethyl)thio)-3H-spiro[benzo[h]quinazoline-5,1′-cyclohexan]-4(6H)-one], which activity at 50 µM (GAS strain UMAA2616) is on record?
A: 99 ± 10%

Q: For “3-Allyl-2-(ethylthio)-8-isopropoxy-5,5-dimethyl-5,6-dihydrobenzo[h]quinazolin-4(3H)-one [17f]”, which IC50 [2, 4] is on record?
A: 4.1 ± 0.7 µM

Q: And the “Aq. Sol.” value (Aqueous)?
A: 14.5 ± 3.5 µM

Q: For `C=CCn1c(SCC(=O)OCC)nc2c(c1=O)C(C)(C)Cc1ccccc1-2` [compound 31], which activity at 50 µM (GAS strain UMAA2616) is on record?
A: 101 ± 2%

Q: Which activity at 50 µM (GAS strain UMAA2616) does the source give for `C=CCn1c(SCC#N)nc2c(c1=O)C(C)(C)Cc1ccccc1-2` [12g, 2-((3-allyl-5,5-dimethyl-4-oxo-3,4,5,6-tetrahydrobenzo[h]quinazolin-2-yl)thio)acetonitrile] here?
A: 100 ± 3%

Q: What about the solubility at 5 min (Aqueous) of the same compound?
A: 3 ± 1 µM (≈ 1.01 µg/mL)

Q: For `C=CCn1c(OCC)nc2c(c1=O)C1(CCCCC1)Cc1ccccc1-2` [7a, 3-allyl-2-ethoxy-3H-spiro[benzo[h]quinazoline-5,1′-cyclohexan]-4(6H)-one], which activity at 50 µM (GAS strain UMAA2616) is on record?
A: 102 ± 9%

Q: For `C=CCn1c(OCC)nc2c(c1=O)C(C)(C)Cc1ccccc1-2` [13a, 3-allyl-2-ethoxy-5,5-dimethyl-5,6-dihydrobenzo[h]quinazolin-4(3H)-one], which activity at 50 µM (GAS strain UMAA2616) is on record?
A: 50 ± 23%

Q: For `C=CCn1c(SCCO)nc2c(c1=O)C(C)(C)Cc1ccccc1-2` [12f, 3-allyl-2-((2-hydroxyethyl)thio)-5,5-dimethyl-5,6-dihydrobenzo[h]quinazolin-4(3H)-one], which activity at 50 µM (GAS strain UMAA2616) is on record?
A: 6 ± 3%

Q: For `COCCSc1nc2c(c(=O)n1CCc1ccc(OC)cc1)C(C)(C)Cc1ccccc1-2` [19a, 2-((2-Methoxyethyl)thio)-3-(4-methoxyphenethyl)-5,5-dimethyl-5,6-dihydrobenzo[h]quin-azolin-4(3H)-one], which “Inhibition of HeLa cell growth” value (HeLa cells) is on record?
A: ≤ 35%

Q: Which activity at 50 µM (GAS strain UMAA2616) does the source give for `CCSc1nc2c(c(=O)n1C)C(C)(C)Cc1ccc(OC)cc1-2` [12m, 2-(ethylthio)-9-methoxy-3,5,5-trimethyl-5,6-dihydrobenzo[h]quinazolin-4(3H)-one] here?
A: 83 ± 15%

Q: And the half-life at 1 μM [1]?
A: 1.7 min

Q: With `C=CCn1c(NCC)nc2c(c1=O)C1(CCCCC1)Cc1ccccc1-2` [7b, 3-allyl-2-(ethylamino)-3H-spiro[benzo[h]quinazoline-5,1′-cyclohexan]-4(6H)-one] as the compound, how does the activity at 50 µM (GAS strain UMAA2616) read?
A: 32 ± 18%

Q: With `C=CCn1c(SCC(F)(F)F)nc2c(c1=O)C(C)(C)Cc1ccc(OC)cc1-2` [12l, 3-allyl-9-methoxy-5,5-dimethyl-2-((2,2,2-trifluoroethyl)thio)-5,6-dihydrobenzo[h]quinazolin-4(3H)-one] as the compound, how does the activity at 50 µM (GAS strain UMAA2616) read?
A: 86 ± 7%

Q: What about the half-life at 1 μM [1] of the same compound?
A: 4.8 min

Q: For “2-(ethylthio)-9-methoxy-5,5-dimethyl-4-(2,2,2-trifluoroethoxy)-5,6-dihydrobenzo[h]quinazoline [20b]”, which “MLM t1/2” value [1] is on record?
A: 45.5 min

Q: For `CCn1c(SCCOC)nc2c(c1=O)C(C)(C)Cc1ccccc1-2` [12i, 3-ethyl-2-((2-methoxyethyl)thio)-5,5-dimethyl-5,6-dihydrobenzo[h]quinazolin-4(3H)-one], which activity at 50 µM (GAS strain UMAA2616) is on record?
A: 39 ± 15%

Q: With `C=CCn1c(SCC)nc2c(c1=O)C(C)(C)Cc1ccccc1-2` [compound 30] as the compound, how does the activity at 50 µM (GAS strain UMAA2616) read?
A: 89 ± 5%

Q: For `C=CCn1c(SC)nc2c(c1=O)C1(CCCCC1)Cc1ccccc1-2` [6f, 3-allyl-2-(methylthio)-3H-spiro[benzo[h]quinazoline-5,1′-cyclohexan]-4(6H)-one], which activity at 50 µM (GAS strain UMAA2616) is on record?
A: 98 ± 3%

Q: With `C=CCn1c(SCc2ccccc2)nc2c(c1=O)C1(CCCCC1)Cc1ccccc1-2` [6b, 3-allyl-2-(benzylthio)-3H-spiro[benzo[h]quinazoline-5,1′-cyclohexan]-4(6H)-one] as the compound, how does the IC50 ([2]; Streptococcus pyogenes) read?
A: > 50 µM

Q: And the activity at 50 µM (GAS strain UMAA2616)?
A: 96 ± 6%

Q: Which activity at 50 µM (GAS strain UMAA2616) does the source give for `C=CCn1c(SCC(N)=O)nc2c(c1=O)C(C)(C)Cc1ccccc1-2` [12d, 2-((3-allyl-5,5-dimethyl-4-oxo-3,4,5,6-tetrahydrobenzo[h]quinazolin-2-yl)thio)acetamide] here?
A: 100 ± 2%

Q: Which IC50 [2, 4] does the source give for “2-((2-Methoxyethyl)thio)-4-(4-methoxyphenethoxy)-5,5-dimethyl-5,6-dihydrobenzo[h]quinazoline [20a]” here?
A: 5.5 ± 0.7 µM

Q: And the “Inhibition of HeLa cell growth” value (HeLa cells)?
A: ≤ 35%

Q: And the “MLM t1/2” value [1]?
A: 45.1 min

Q: Which “% of plasmin activity at 50 μM” value [2] does the source give for `C=CCn1c(SCCCC)nc2c(c1=O)C1(CCCCC1)Cc1ccccc1-2` [compound 1, 3-allyl-2-(butylthio)-3H-spiro[benzo[h]quinazoline-5,1′-cyclohexan]-4(6H)-one] here?
A: 48 ± 28%

Q: What about the IC50 ([2]; Streptococcus pyogenes) of the same compound?
A: > 50 µM

Q: And the activity at 50 µM (GAS strain UMAA2616)?
A: 95 ± 8%

Q: And the “Inhibition of HeLa cell growth” value (HeLa cells)?
A: ≤ 35%

Q: And the “Efficacy in mouse models of GAS infection” value (GAS infection)?
A: displayed efficacy; also recorded: significant protective effect

Q: And the “Fold higher stability to oxidation in MLM (comparison of t1/2)” value ([1]; 1 vs 6b, O-alkylated vs N-alkylated counterparts)?
A: more than 60 fold

Q: What about the solubility at 5 min (Aqueous) of the same compound?
A: 2 ± 1 µM (≈ 0.789 µg/mL)

Q: Which activity at 50 µM (GAS strain UMAA2616) does the source give for `C=CCn1c(SCc2ccc(OC)cc2)nc2c(c1=O)C1(CCCCC1)Cc1ccccc1-2` [6a, 3-allyl-2-((4-methoxybenzyl)thio)-3H-spiro[benzo[h]quinazoline-5,1′-cyclohexan]-4(6H)-one] here?
A: 105 ± 6%

Q: For `C=CCn1c(SCCN(C)C)nc2c(c1=O)C1(CCCCC1)Cc1ccccc1-2` [6e, 3-allyl-2-((2-(dimethylamino)ethyl)thio)-3H-spiro[benzo[h]quinazoline-5,1′-cyclohexan]-4(6H)-one], which activity at 50 µM (GAS strain UMAA2616) is on record?
A: 88 ± 20%

Q: With “3-allyl-2-(ethylthio)-9-methoxy-5,5-dimethyl-2,3,5,6-tetrahydrobenzo[h]quinazolin-4(1H)-one [12a]” as the compound, how does the “Fold improvement in potency (IC50) over 1” value [2] read?
A: greater than 35 fold

Q: And the “Reduction in streptokinase activity at 5 μM” value [2]?
A: 90%

Q: And the IC50 [2, 4]?
A: 1.3 ± 0.6 µM

Q: What about the “Inhibition of HeLa cell growth” value (HeLa cells) of the same compound?
A: ≤ 35%

Q: What about the “MLM t1/2” value [1] of the same compound?
A: 2.3 min

Q: And the “Aq. Sol.” value (Aqueous)?
A: 9 ± 2 µM

Q: For “4-(allyloxy)-2-(ethylthio)-9-methoxy-5,5-dimethyl-5,6-dihydrobenzo[h]quinazoline [20c]”, which “MLM t1/2” value [1] is on record?
A: 8.3 min

Q: For `C=CCn1c(SCc2ccc(NC(C)=O)cc2)nc2c(c1=O)C1(CCCCC1)Cc1ccccc1-2` [6c, N-(4-(((3-allyl-4-oxo-4,6-dihydro-3H-spiro[benzo[h]quinazoline-5,1′-cyclohexan]-2-yl)thio)methyl)phenyl)acetamide], which activity at 50 µM (GAS strain UMAA2616) is on record?
A: 96 ± 14%

Q: With “3-allyl-2-(ethylthio)-8-methoxy-5,5-dimethyl-5,6-dihydrobenzo[h]quinazolin-4(3H)-one [12c]” as the compound, how does the IC50 [2, 4] read?
A: 3.1 ± 0.7 µM

Q: What about the “Inhibition of HeLa cell growth” value (HeLa cells) of the same compound?
A: ≤ 35%

Q: And the “S. aureus biofilm inhibition” value [3]?
A: potent S. aureus biofilm inhibitors

Q: And the “MLM t1/2” value [1]?
A: 0.8 min

Q: What about the “Aq. Sol.” value (Aqueous) of the same compound?
A: 14.5 ± 3.5 µM

Q: What does the source list for `C=CCn1c([S+]([O-])CC)nc2c(c1=O)C(C)(C)Cc1ccc(OC)cc1-2` (stereo not drawn) [compound 14, 3-allyl-2-(ethylsulfinyl)-9-methoxy-5,5-dimethyl-5,6-dihydrobenzo[h]quinazolin-4(3H)-one]?
A: activity at 50 µM (GAS strain UMAA2616): 101 ± 5%; half-life at 1 μM [1]: 2.8 min

Q: Which activity at 50 µM (GAS strain UMAA2616) does the source give for `C=CCn1c(SCc2ccccc2)nc2c(c1=O)C(C)(C)Cc1ccccc1-2` [compound 29] here?
A: 103 ± 3%

Q: What about the “Inhibition of HeLa cell growth” value (HeLa cells) of the same compound?
A: ≤ 35%

Q: For `C=CCn1c(NCC)nc2c(c1=O)C(C)(C)Cc1ccccc1-2` [13b, 3-allyl-2-(ethylamino)-5,5-dimethyl-5,6-dihydrobenzo[h]quinazolin-4(3H)-one], which activity at 50 µM (GAS strain UMAA2616) is on record?
A: 6 ± 3%

Reference: publication PMC3605901 (Bioorganic & medicinal chemistry, 2013)
